Experimental findings from US11220548B2, “Treatment of C1013G/CXCR4-associated Waldenstrom's macroglobulinemia with an anti-CXCR4 antibody” (BRISTOL-MYERS SQUIBB COMPANY, priority 2013, dated 2022) are described below.

Test [1] has as its system C1013G/CXCR4-infected BCWM.1 cells. The experiment in a line: [3H]-thymidine uptake proliferation assay of C1013G/CXCR4-infected cells. Format: cell-based, human. To be noted: in the context of the BM microenvironment, 48 h. As for the experimental part: (§1) FIGS. 21A-21D: FIGS. 21A-21D show BMS-936564 targets C1013G/CXCR4-mutated cells in WM cells in the context of BM. C1013G/CXCR4-infected BCWM.1 cells were tested for their migratory properties using a transwell migration assay. Cells were exposed to increasing concentrations of BMS-936564 and migration was determined after 5 h. The transwell migration assay was performed in presence of either primary WM BM-MSCs (FIG. 21A) or SDF-1α (FIG. 21B). In both cases, BMS-936564-dependent inhibition of WM cell migration was observed. C1013G/CXCR4-infected BCWM.1 cells were treated with BMS-936564/for 4 h and subsequently tested for adhesion to primary WM BM-MSCs. […] C1013G/CXCR4-infected BCWM.1 cells were cultured with control media and with BMS-936564 for 48 h in the presence or absence of primary WM BM-MSCs. Cell proliferation was assessed using [^3H]-thymidine uptake assay (FIG. 21D). Bars indicate standard deviations. P indicates P value. All data represent mean (±sd) of triplicate experiments. […].

The subject of another test is WM cell lines. Kind of test: Adhesion of WM cells to primary WM BM-MSCs. To be noted: 4 h treatment, adhesion after 2 h. Type of test: cell-based, human. As for the experimental part:
(§2) FIGS. 15A-15C: FIGS. 15A-15C show the effect of BMS-936564 on adhesion and proliferation of WM cells in vitro. WM cell lines were treated with BMS-936564 for 4 h and subsequently tested for adhesion to primary WM BM-MSCs. […] WM cell lines, MWCL.1 (FIG. 15B) and BCWN.1 (FIG. 15C) were cultured with control media and with BMS-936564 for 48 h in the presence or absence of primary WM BMMSCs. Cell proliferation was assessed using a [^3H]-thymidine uptake assay. Bars indicate standard deviations. P indicates P value. All data represent mean (±sd) of triplicate experiments. The CXCR4 antagonist, […] (Sigma-Aldrich, St. Louis, Mo.), was used as control.

Test [2] concerns BCWM.1 cells. Kind of test: Western blot of survival signaling in WM cells. Format: cell-based, human. To be noted: 6 h, cultured in the context of BM-MSCs, increasing concentrations. The method, then: BCWM.1 cells were exposed to BMS-936564 for 6 h in presence or absence of primary WM BM-MSCs. The BCWM.1 cells were then harvested and cell lysates were subjected to western blot analysis using anti-phospho(p)-ERK1/2, anti-ERK1/2, anti-p-Akt, anti-Akt, anti-p-SRC, and anti-SRC antibodies. BCWM.1 cells cultured in the absence of WM BM-MSCs were used as control. Bars indicate standard deviation.
(§3) Protein lysates were obtained from WM cells by homogenization under nondenaturing conditions in lysis buffer (Cell Signaling Technology, Beverly, Mass.) supplemented with 5 mM NaF, 2 mM Na3VO4, 1 mM PMSF ([…]), 5 μg/mL leupeptine, and 5 μg/mL aprotinin. Whole-cell lysates were subjected to sodium dodecyl sulfate-polyacrylamide gel electrophoresis (SDS-PAGE) and transferred to polyvinylidene difluoride (PVDF) membrane (Bio-Rad Laboratories, Hercules, Calif.). The antibodies used for immunoblotting included: anti-phospho(p)-ERK, anti-ERK, anti-p-Akt, anti-Akt, anti-p-Src, anti-Src, anti-caspase-9, anti-PARP, anti-p-β-catenin, anti-β-catenin, anti-p-GSK3, anti-GAPDH and anti-α-tubulin antibodies (Cell Signaling, Danvers, Mass.).
To dissect the possible role of BMS-936564 in affecting WM signaling, WM cells were cultured in the absence or presence of primary WM BM-MSCs, with increasing concentrations of the anti-CXCR4 antibody.

Test [3] has as its system WM cell lines (MWCL.1; BCWM.1). The experiment in a line: [3H]-thymidine uptake proliferation assay in presence of primary WM BM-MSCs. Type of test: cell-based, human. To be noted: 48 h. The method, then: as §2
In test [4] the test system is BCWM.1 cells. Kind of test: Western blot of apoptosis-related proteins in WM cells. Format: cell-based, human. To be noted: 14 h. The method, then:
FIGS. 18A and 18B: FIGS. 18A and 18B show the effect of BMS-936564 on apoptosis-related proteins in WM cells. BCWM.1 cells were exposed to BMS-936564 for 14 h. Whole cell lysates were then harvested and subjected to western blot analysis using anti-caspase-9, anti-PARP and anti-tubulin antibodies (FIG. 18A), and anti-p-β catenin, anti-β-catenin, anti-p-GSK3β, and anti-tubulin antibodies (FIG. 18B).
as §3

Test [5] deals with C1013G/CXCR4-infected BCWM.1 cells. The experiment in a line: Transwell migration assay of C1013G/CXCR4-infected cells. Format: cell-based, human. To be noted: in the context of the BM microenvironment. The method, then:
as §1

Test [6] concerns C1013G/CXCR4 variant-harboring BCWM.1 cells. The experiment in a line: In vivo dissemination of C1013G/CXCR4-mutated WM cells (immunohistochemistry for human CD20 and CXCR4). More on the design: species or system SCID/Bg mice. To be noted: 10 mg/kg intraperitoneally, 3-4 times per week for 3 weeks. As for the experimental part: FIGS. 20A-20E: FIGS. 20A-20E show representative histochemical images of the effect of BMS-936564 on C1013G/CXCR4-mutated cells in WM cells in vivo. SCID/Bg mice were injected intravenously with either C1013G/CXCR4 variant-harboring BCWM.1 cells or empty/control vector-infected cells (control cells). Mice were treated with either BMS-936564 or control antibody (10 mg/kg, intraperitoneally; ×3/4/week; mice: 5/group). After 3 weeks mice were euthanized and organs harvested. Hematoxylin-eosin immunohistochemical staining for human CD20 and CXCR4 were performed on femur BM (FIG. 20A), liver (FIG. 20B), kidney (FIG. 20C), lung (FIG. 20D), and lymph nodes (FIG. 20E) (Nikon, Melville, N.Y.; 4×, 10× or 20× magnifications are shown).
Murine tissues (BM, liver, kidney, lung and lymph nodes) were analyzed and quantified for the expression of human CD20 and human CXCR4. These tissues were fixed in formalin 10%, ethanol 70% was used as storage solution; and embedded in paraffin. Paraffin sections were incubated with anti-human-CXCR4 (Abcam, Cambridge, Mass.), and anti-human-CD20 (Dako, Carpinteria, Calif.) monoclonal antibodies, using the Leica Bond III automated staining platform (Leica Biosystems, Buffalo Grove, Ill.). […] Quantification of CD20 and CXCR4 staining was performed using NIS Elements software (Nikon, Melville, N.Y.). […]

Turning to “BMS-936564: fully human anti-CXCR4 monoclonal antibody; VH SEQ ID NO: 25, VL SEQ ID NO: 29”, in test [1], the “targeting proliferative properties of CXCR4-mutated cells” value was “equally active”. Besides, the “WM cell adhesion to WM BM-MSCs” value with WM cell lines is listed as “inhibition”. For the same substance, the “p-Akt, p-ERK, and p-Src in WM cells” value with BCWM.1 cells [2] is recorded as “drug-dependent inhibition”. The “WM cell proliferation in presence of WM BM-MSCs” value in test [3] is recorded as “inhibition”. For the same substance, in the test with BCWM.1 cells [4], the “caspase-9 and PARP cleavage” value is recorded as “increase”; the “p-GSK3-β, p-β-catenin and β-catenin” value was “increased phospho(p)-GSK3-β, and p-β-catenin up-regulation, leading to β-catenin degradation”. Also, the “targeting migration of CXCR4-mutated cells” value in test [5] is reported as “equally active”. For the same substance, the “involvement of lymph nodes” value in test [6] is “absent”. The “CXCR4+/CD20+ cell infiltration in femur, liver, kidney and lung” value in test [6] (vs control antibody-treated mice) is “significant reduction”.
